This note sets out measurements from PubChem BioAssay AID1645848.

≈ marks a conversion by molar mass, not a printed value. Some results are limits rather than exact numbers.

For this data set the following is noted: buffer; pH 7.4; 6.0 h; 150.0 µM.
As for `Cc1cccc(N2CCN(C(=O)c3ccc4c(c3)C(O)CCCCCN4C)CC2)c1` (stereo not drawn), the solubility (kinetic) (in general, the concentration staying in solution when a stock, usually in DMSO, is diluted into the medium) is 14.8 µg/mL (≈ 36.3 µM). The figure for `Cc1ccc2nc(NC3=NC(c4[nH]ncc4Cl)C4=C(CCCC4=O)N3)oc2c1` (stereo not drawn) is less than 1 µg/mL.

In turn, `COc1cccc(NCCC2(c3ccccc3)CC(C)(C)OC(C)(C)C2)c1` showed a kinetic solubility of less than 1 µg/mL. As to `Clc1ccc(-c2nc(-c3ccc(Br)o3)no2)c(Cl)c1`, the solubility (kinetic) was less than 1 µg/mL.

Regarding `CN(C)c1cccc(-c2nnc(N3CCC(C(N)=O)CC3)s2)c1`, the kinetic solubility was more than 49 µg/mL. The value for `Nc1nc2c(s1)C(c1ccc(Br)cc1)CC(=O)N2` (stereo not drawn) was 6.66 µg/mL (≈ 20.6 µM); that for `COc1cccc(C(=O)Nc2ccc3oc(-c4ccc5ccccc5c4)nc3c2)c1` was less than 1 µg/mL; that for `CN(C)CCN1C(=O)c2cccc3cc(N)cc(c23)C1=O` was more than 42 µg/mL. The compound `COc1ccc(NC(=O)c2cc(-c3ccc[nH]3)n[nH]2)cc1OC` displayed a kinetic solubility of more than 31 µg/mL.

For the compound `CC(=O)Nc1ncc(S(=O)(=O)Nc2cnccc2C(=O)Nc2nc(-c3ccccc3)cs2)s1`, the kinetic solubility turned out to be 56.1 µg/mL (≈ 112 µM). The figure for `Cc1cc(F)ccc1-c1nc(NCCN=C(N)NC#N)nc2c1ccc(=O)n2-c1c(F)cccc1F` is 39.5 µg/mL (≈ 80.2 µM); for `O=[S+]([O-])(Nc1nccs1)c1ccc(NCc2cccc3c2NCC3)cc1` it is more than 57 µg/mL. The value for `NC(=O)C1CCN(c2nc(-c3ccc(F)cc3)cs2)CC1` was more than 45 µg/mL. As to `O=C(Nc1nc(-c2ccccc2)cs1)c1ccncc1NS(=O)(=O)c1ccccc1Cl`, the kinetic solubility stood at 20 µg/mL (≈ 42.4 µM). The figure for `CC(C)Oc1ccc(CCNC(=O)c2cc3sccc3n2Cc2ccccc2)cc1OC(C)C` is less than 1 µg/mL; for `CC(C)(C)c1cc(NC(=O)Nc2ccc(-c3cn4c(n3)sc3cc(OCCN5CCOCC5)ccc34)cc2)no1` it is less than 1 µg/mL. The figure for `COc1ccc(Cn2c(C(=O)O)c(CNCc3ccco3)c3ccc(C)cc32)cc1` is more than 60 µg/mL; for `Cc1ccc(S(=O)(=O)Nc2cnccc2C(=O)Nc2nc(-c3ccc4c(c3)CCCC4)cs2)cc1` it is less than 1 µg/mL.

The compound `CC(C)CS(=O)(=O)c1oc(-c2ccc(F)cc2)nc1S(=O)(=O)c1ccccc1` displayed a kinetic solubility of less than 1 µg/mL.

Regarding `Cc1noc(C)c1[S+](=O)([O-])N1CCC2(CC1)CC(c1cccc(C(F)(F)F)c1)=NO2`, the kinetic solubility is less than 1 µg/mL. The value for `Fc1ccc(-c2nc(-c3ccncc3)nc3ccccc23)cc1F` was less than 1 µg/mL. The value for `CC(/C=C/C(=O)NO)=C\[C@@H](C)C(=O)c1ccc(N(C)C)cc1` was more than 45 µg/mL; that for `CCN1CCCC1CNC(=O)c1cc(S(=O)(=O)CC)c(N)cc1OC` (stereo not drawn) was 36.2 µg/mL (≈ 98.1 µM); that for `O=C(NCC1CCOCC1)C1CC(=O)N(c2n[nH]c3cc(Br)ccc23)C1` (stereo not drawn) was 25.3 µg/mL (≈ 60.1 µM).

`Cc1ccc2oc(NC3=NC(c4[nH]ncc4Cl)C4=C(CCCC4=O)N3)nc2c1` (stereo not drawn): the solubility (kinetic) is 1.35 µg/mL (≈ 3.41 µM). As to `Fc1ccc(-c2ccc(Nc3nc(-c4ccncc4)nc4ccccc34)cc2F)c(Cl)c1`, the solubility (kinetic) was less than 1 µg/mL. On to `Fc1cc(Nc2nc(-c3ccncc3)nc3ccccc23)ccc1-c1cc(F)c(F)c(F)c1`, for which the kinetic solubility was less than 1 µg/mL.

Compound `N#Cc1ccc(NS(=O)(=O)c2ccc(NC(=O)Cc3ccc(Cl)c(Cl)c3)cc2)cc1` showed a solubility (kinetic) of less than 1 µg/mL. Regarding `COc1ncccc1-c1cc2c(ccn2CC2CCN([S+](C)(=O)[O-])CC2)c(N2CCOCC2)n1`, the solubility (kinetic) was 50.2 µg/mL (≈ 103 µM). The value for `OCC(O)CCO/N=C1/C(c2c(O)[nH]c3ccccc23)=Nc2ccccc21` (stereo not drawn) was less than 1 µg/mL; that for `Cc1nsc(N)c1C(=O)N(C)CCOc1ccccc1Cl` was more than 48 µg/mL; that for `COc1ccc(C)cc1Nc1c2c(nc3ccccc13)CCC2` was more than 45 µg/mL. The figure for `CN(Cc1ccc(/C=C/C(=O)NO)cc1)CC12CC3CC(CC(C3)C1)C2` is more than 35 µg/mL; for `CC(=O)Nc1ccc(CN2CCc3nc(C(C)C)nc(-c4ccc(Cl)cc4)c3CC2)cc1` it is 33.1 µg/mL (≈ 73.7 µM).

Take `CC(=O)N1CCc2c(sc3c2c(=O)n(-c2ccccc2)c(=O)n3CC(=O)c2ccccc2)C1`: the kinetic solubility stood at 3.53 µg/mL (≈ 7.69 µM). The figure for `O=C(NCC1(c2nc(-c3ccccc3)cs2)CCOCC1)c1cccc(-c2noc(C(F)(F)F)n2)c1` is 4.96 µg/mL (≈ 9.65 µM). The compound `NC(=O)C1CCN(c2nnc(-c3ccc4c(c3)OCCCO4)s2)CC1` registered a kinetic solubility of 9.84 µg/mL (≈ 27.3 µM). This solubility kinetic is about 2-fold higher than that of the compound before. The value for `NC(=O)C1CCN(c2nc(-c3ccc4occc(=O)c4c3)cs2)CC1` was more than 52 µg/mL; that for `Cc1nc(Nc2ncc(C(=O)Nc3c(C)cccc3Cl)s2)cc(N2CCN(CCO)CC2)n1` was 25.6 µg/mL (≈ 52.4 µM). The figure for `CCn1c(C)c(C(C)=O)c(C)c1C(=O)Nc1cccc([S+](=O)([O-])N(C)C)c1` is 43.4 µg/mL (≈ 111 µM); for `Cc1cnc(-c2ccccc2C(C)C)nc1NCC1CCN(C2COC2)CC1` it is more than 56 µg/mL; for `N#Cc1nc(-c2cccc3ccccc23)oc1NCc1ccccc1` it is less than 1 µg/mL.

On to `COc1cccc(-c2noc(Nc3ccc4c(c3)OCCO4)n2)c1`, for which the solubility (kinetic) is less than 1 µg/mL.

For `CCOc1cc(F)c(CCNC(=O)c2cc3sccc3n2Cc2ccccc2)cc1OCC`, the kinetic solubility was less than 1 µg/mL. The value for `Cc1ccc(S(=O)(=O)NCCC(=O)Nc2nc(-c3ccccc3)cs2)cc1` was less than 1 µg/mL; that for `Cc1ccc(S(=O)(=O)Nc2ccc(C(=O)Nc3ncc(-c4ccccc4)s3)cc2)cc1` was less than 1 µg/mL; that for `Cc1ccc(S(=O)(=O)Nc2ccccc2C(=O)Nc2nc(-c3ccccc3)co2)cc1` was less than 1 µg/mL. Take `COc1ccnc(NC(=S)N2CCN(c3ccccc3C(F)(F)F)CC2)c1`: the solubility (kinetic) was 7 µg/mL (≈ 17.7 µM).

On to `Cc1ccnc(NC(=S)N2CCN(c3cccc(C(F)(F)F)n3)CC2)c1`, for which the solubility (kinetic) was 3.88 µg/mL (≈ 10.2 µM). Turning to `c1ccc(Nc2cc3c(cn2)CN(Cc2ccc4[nH]ccc4c2)CCN3)cc1`, the kinetic solubility came to 30.6 µg/mL (≈ 82.8 µM).

`O=c1c2ccccc2nc(/C=C/c2cccnc2)n1Cc1ccccc1` displayed a kinetic solubility of 1.8 µg/mL (≈ 5.29 µM). Against the preceding compound, the solubility kinetic is about 17-fold lower. The value for `O=[S+]([O-])(Nc1ccc(N2CCNCC2)cc1)c1ccc(NCc2ccc(Br)cc2O)cc1` was 20.1 µg/mL (≈ 38.8 µM); that for `Cc1ccc(S(=O)(=O)Nc2cc(F)ccc2C(=O)Nc2nc(-c3ccccc3)cs2)cc1` was less than 1 µg/mL; that for `Cc1nn(Cc2ccc(Cl)cc2)c(C)c1NC(=O)c1cc(-c2ccc3c(c2)OCO3)on1` was less than 1 µg/mL. The figure for `Cc1cc(NS(=O)(=O)c2ccc(NC(=O)Cc3ccc(Cl)c(F)c3)cc2)no1` is more than 63 µg/mL; for `O=C(Nc1ccc([S+](=O)([O-])Nc2nccs2)cc1)c1ccccn1` it is 7.05 µg/mL (≈ 19.6 µM). The value for `COc1cccc(CNc2ccc(S(=O)(=O)Nc3cccc(N4CCNCC4)c3)cc2)c1O` was 51.1 µg/mL (≈ 109 µM); that for `COc1cc(OC)cc(-c2csc(N3CCC(C(N)=O)CC3)n2)c1` was more than 51 µg/mL; that for `O=C(COc1ccccc1)NCC(c1cccs1)S(=O)(=O)c1ccc(Cl)cc1` (stereo not drawn) was 3.83 µg/mL (≈ 8.79 µM). Compound `O=C(Cc1ccc(Cl)c(Cl)c1)Nc1ccc(S(=O)(=O)Nc2nncs2)cc1` had a kinetic solubility of more than 65 µg/mL. The figure for `Cc1noc(C)c1-c1cc(-c2ccc3c(c2)C(=O)NC3)cn2cncc12` is more than 76 µg/mL; for `Oc1ccc2[nH]cc(CCCCN3CC=C(c4ccccc4)CC3)c2c1` it is 42.4 µg/mL (≈ 122 µM); for `O=C1CCCC2=C1C(c1[nH]ncc1Cl)N=C(Nc1nc3cc(F)ccc3o1)N2` (stereo not drawn) it is 3.16 µg/mL (≈ 7.87 µM).
